The structures appear in SMILES notation.

Our source for the Ki values is patent US20110166121A1 (LG LIFE SCIENCES LTD., priority 2008, published 2011).

The assay relates to Human platelet aggregation caused by ADP. Kind of assay: Inhibition of ADP-induced platelet aggregation (Mimic-human PRP). To be noted: 20 μM ADP, human platelet concentrate diluted with PPP, absorption at 595 nm. The format is cell-based. An outline of the steps:
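Ki came from non-linear sigmoidal fits of inhibition, measured as the 3-min rise in absorbance at 595 nm after 20 μM ADP, relative to 0/20 μM ADP controls. Platelets (3–4×10^8/mL in PPP-diluted human PRP) were exposed to 0.01–30 μM compound for 20 min at room temperature beforehand.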

A word on the Ki: it is a dissociation constant, usually derived from enzyme kinetics or from competition with a known ligand. A lower Ki goes with tighter binding. `CCCc1cc2c(N3CCn4c(nnc4C(F)(F)F)C3)nc(OCCNC(=O)NC)nc2s1` [Example 9-25, 1-Methyl-3-{2-[6-propyl-4-(3-trifluoromethyl-5,6-dihydro-8H-[1,2,4]triazolo[4,3-a]pyrazin-7-yl)-thieno[2,3-d]pyrimidin-2-yloxy]-ethyl}-urea] came in with a Ki of 5.7 nM.
In the case of `CCCc1cc2c(N3CCn4c(nnc4C(F)(F)F)C3)nc(OCCNC(=O)N3CCCC3)nc2s1` [Example 9-26, Pyrrolidine-1-carboxylic Acid {2-[6-propyl-4-(3-trifluoromethyl-5,6-dihydro-8H-[1,2,4]triazolo[4,3-a]pyrazin-7-yl)-thieno[2,3-d]pyrimidin-2-yloxy]-ethyl}-amide], the inhibition constant (Ki) came out at 16 nM.
In turn, `CCCc1cc2c(N3CCn4c(nnc4C(F)(F)F)C3)nc(OCCNC(N)=O)nc2s1` [Example 9-27, {2-[6-Propyl-4-(3-trifluoromethyl-5,6-dihydro-8H-[1,2,4]triazolo[4,3-a]pyrazin-7-yl)-thieno[2,3-d]pyrimidin-2-yloxy]-ethyl}-urea] registered an inhibitory constant (Ki) of 6.5 nM.
For the compound `CCCc1cc2c(N3CCn4c(nnc4C(F)(F)F)C3)nc(N3CC(O)C(NC=O)C3)nc2s1` (stereo not shown) [Example 9-28, N-{4-Hydroxy-1-[6-propyl-4-(3-trifluoromethyl-5,6-dihydro-8H-[1,2,4]triazolo[4,3-a]pyrazin-7-yl)-thieno[2,3-d]pyrimidin-2-yl]-pyrrolidin-3-yl}-formamide], the Ki stood at 0.16 nM.
Turning to `CCCc1cc2c(N3CCn4c(nnc4C(F)(F)F)C3)nc(N3CC(Cl)C(NC(C)=O)C3)nc2s1` (stereo not shown) [Example 9-29, N-{4-Chloro-1-[6-propyl-4-(3-trifluoromethyl-5,6-dihydro-8H-[1,2,4]triazolo[4,3-a]pyrazin-7-yl)-thieno[2,3-d]pyrimidin-2-yl]-pyrrolidin-3-yl}-acetamide], the Ki worked out at 2.2 nM.
The value for `CCCc1cc2c(N3CCn4c(nnc4C(F)(F)F)C3)nc(N3CC4N=C(C)OC4C3)nc2s1` (stereo not shown) [Example 9-30, 7-[2-(2-Methyl-3a,4,6,6a-tetrahydro-pyrrolo[3,4-d]oxazol-5-yl)-6-propyl-thieno[2,3-d]pyrimidin-4-yl]-3-trifluoromethyl-5,6,7,8-tetrahydro-[1,2,4]triazolo[4,3-a]pyrazine] was 0.3 nM; that for `CCCc1cc2c(N3CCn4c(nnc4C(F)(F)F)C3)nc(NCCNC=O)nc2s1` [Example 9-31, N-{2-[6-Propyl-4-(3-trifluoromethyl-5,6-dihydro-8H-[1,2,4]triazolo[4,3-a]pyrazin-7-yl)-thieno[2,3-d]pyrimidin-2-ylamino]-ethyl}-formamide] was 87 nM; that for `CCCc1cc2c(N3CCn4c(nnc4C(F)(F)F)C3)nc(NCCNC(=O)OC)nc2s1` [Example 9-32, {2-[6-Propyl-4-(3-trifluoromethyl-5,6-dihydro-8H-[1,2,4]triazolo[4,3-a]pyrazin-7-yl)-thieno[2,3-d]pyrimidin-2-ylamino]-ethyl}-carbamic acid methyl ester] was 29 nM.
The value for `CCCc1cc2c(N3CCn4c(nnc4C(F)(F)F)C3)nc(N3CCNC3=O)nc2s1` [Example 9-33, 1-[6-Propyl-4-(3-trifluoromethyl-5,6-dihydro-8H-[1,2,4]triazolo[4,3-a]pyrazin-7-yl)-thieno[2,3-d]pyrimidin-2-yl]-imidazolidin-2-one] was 41 nM; that for `CCCc1cc2c(N3CCn4c(nnc4C(F)(F)F)C3)nc(N3CC4N=COC4C3)nc2s1` (stereo not shown) [Example 9-34, 7-[6-Propyl-2-(3a,4,6,6a-tetrahydro-pyrrolo[3,4-d]oxazol-5-yl)-thieno[2,3-d]pyrimidin-4-yl]-3-trifluoromethyl-5,6,7,8-tetrahydro-[1,2,4]triazolo[4,3-a]pyrazine] was 15 nM.
`CCCc1cc2c(N3CCn4c(nnc4C(F)(F)F)C3)nc(OC)nc2s1` [Example 9-35, 7-(2-Methoxy-6-propyl-thieno[2,3-d]pyrimidin-4-yl)-3-trifluoromethyl-5,6,7,8-tetrahydro-[1,2,4]triazolo[4,3-a]pyrazine] showed a Ki of 220 nM.
As to `CCCc1cc2c(N3CCn4c(nnc4C(F)(F)F)C3)nc(OCC)nc2s1` [Example 9-36, 7-(2-Ethoxy-6-propyl-thieno[2,3-d]pyrimidin-4-yl)-3-trifluoromethyl-5,6,7,8-tetrahydro-[1,2,4]triazolo[4,3-a]pyrazine], the Ki was determined as 170 nM.
The compound `CCCc1cc2c(N3CCn4c(nnc4C(F)(F)F)C3)nc(N=[N+]=[N-])nc2s1` [Example 9-37, 7-(2-Azido-6-propyl-thieno[2,3-d]pyrimidin-4-yl)-3-trifluoromethyl-5,6,7,8-tetrahydro-[1,2,4]triazolo[4,3-a]pyrazine] registered a Ki of 200 nM.
`CCCc1cc2c(N3CCn4c(nnc4C(F)(F)F)C3)nc(N)nc2s1` [Example 9-38, 6-Propyl-4-(3-trifluoromethyl-5,6-dihydro-8H-[1,2,4]triazolo[4,3-a]pyrazin-7-yl)-thieno[2,3-d]pyrimidin-2-ylamine] gave an inhibitory constant (Ki) of 49 nM. Against the preceding compound, the Ki is about 4.1-fold lower.
As to `CCCc1cc2c(N3CCn4c(nnc4C(F)(F)F)C3)nc(N(C)CCNC(C)=O)nc2s1` [Example 9-40, N-(2-{Methyl-[6-propyl-4-(3-trifluoromethyl-5,6-dihydro-8H-[1,2,4]triazolo[4,3-a]pyrazin-7-yl)-thieno[2,3-d]pyrimidin-2-yl]-amino}-ethyl)-acetamide], the Ki worked out at 22 nM.
The value for `CCCc1cc2c(N3CCn4c(nnc4C(F)(F)F)C3)nc(N(C)CCNC=O)nc2s1` [Example 9-41, N-(2-{Methyl-[6-propyl-4-(3-trifluoromethyl-5,6-dihydro-8H-[1,2,4]triazolo[4,3-a]pyrazin-7-yl)-thieno[2,3-d]pyrimidin-2-yl]-amino}-ethyl)-formamide] was 37 nM; that for `CCCc1cc2c(N3CCn4c(nnc4C(F)(F)F)C3)nc(N(C)CCNC(=O)OC)nc2s1` [Example 9-42, (2-{Methyl-[6-propyl-4-(3-trifluoromethyl-5,6-dihydro-8H-[1,2,4]triazolo[4,3-a]pyrazin-7-yl)-thieno[2,3-d]pyrimidin-2-yl]-amino}-ethyl)-carbamic acid methyl ester] was 27 nM.
`CCCc1cc2c(N3CCn4c(nnc4C(F)(F)F)C3)nc(-n3cncn3)nc2s1` [Example 9-43, 7-(6-Propyl-2-[1,2,4]triazol-1-yl-thieno[2,3-d]pyrimidin-4-yl)-3-trifluoromethyl-5,6,7,8-tetrahydro-[1,2,4]triazolo[4,3-a]pyrazine]: the affinity corresponds to a Ki of 330 nM.
On to `CCCc1cc2c(N3CCn4c(nnc4C(F)(F)F)C3)nc(OCCn3cncn3)nc2s1` [Example 9-44, 7-[6-Propyl-2-(2-[1,2,4]triazol-1-yl-ethoxy)-thieno[2,3-d]pyrimidin-4-yl]-3-trifluoromethyl-5,6,7,8-tetrahydro-[1,2,4]triazolo[4,3-a]pyrazine], for which the affinity corresponds to a Ki of 9.8 nM.
Consider `CCCc1cc2c(N3CCn4c(nnc4C(F)(F)F)C3)nc(NCCc3c[nH]cn3)nc2s1` [Example 9-45, [2-(1H-Imidazol-4-yl)-ethyl]-[6-propyl-4-(3-trifluoromethyl-5,6-dihydro-8H-[1,2,4]triazolo[4,3-a]pyrazin-7-yl)-thieno[2,3-d]pyrimidin-2-yl]-amine], for which affinity was put at a Ki of 38 nM.
In turn, `CCCc1cc2c(N3CCn4c(nnc4C(F)(F)F)C3)nc(-n3cnc(CCN)c3)nc2s1` [Example 9-46, 2-{1-[6-Propyl-4-(3-trifluoromethyl-5,6-dihydro-8H-[1,2,4]triazolo[4,3-a]pyrazin-7-yl)-thieno[2,3-d]pyrimidin-2-yl]-1H-imidazol-4-yl}-ethylamine] came in with a Ki of 530 nM.
Regarding `CCCc1cc2c(N3CCn4c(nnc4C(F)(F)F)C3)nc(-n3ccc([N+](=O)[O-])c3)nc2s1` [Example 9-47, 7-[2-(3-Nitro-pyrrole-1-yl)-6-propyl-thieno[2,3-d]pyrimidin-4-yl]-3-trifluoromethyl-5,6,7,8-tetrahydro-[1,2,4]triazolo[4,3-a]pyrazine], the affinity corresponds to a Ki of 3900 nM.
`CCCc1cc2c(N3CCn4c(nnc4C(F)(F)F)C3)nc(N(CCO)c3cnccn3)nc2s1` [Example 9-50, 2-{[6-Propyl-4-(3-trifluoromethyl-5,6-dihydro-8H-[1,2,4]triazolo[4,3-a]pyrazin-7-yl)-thieno[2,3-d]pyrimidin-2-yl]-pyrazin-2-yl-amino}-ethanol] gave an inhibition constant Ki of 230 nM. This Ki is about 17-fold lower than that of the compound before.
Turning to `CCCc1cc2c(N3CCn4c(nnc4C(F)(F)F)C3)nc(N3CC(=O)N(CCO)C3=O)nc2s1` [Example 9-51, 3-(2-Hydroxy-ethyl)-1-[6-propyl-4-(3-trifluoromethyl-5,6-dihydro-8H-[1,2,4]triazolo[4,3-a]pyrazin-7-yl)-thieno[2,3-d]pyrimidin-2-yl]-imidazolidine-2,4-dione], the affinity, expressed as Ki, was 190 nM. This Ki and that of the compound before are within 1.5-fold of each other.
Turning to `CCCc1cc2c(N3CCn4c(nnc4C(F)(F)F)C3)nc(-n3ccc(N)n3)nc2s1` [Example 9-52, 1-[6-Propyl-4-(3-trifluoromethyl-5,6-dihydro-8H-[1,2,4]triazolo[4,3-a]pyrazin-7-yl)-thieno[2,3-d]pyrimidin-2-yl]-1H-pyrazol-3-ylamine], the affinity corresponds to a Ki of 16 nM.
As to `CCCc1cc2c(N3CCn4c(nnc4C(F)(F)F)C3)nc(Nc3cc[nH]n3)nc2s1` [Example 9-53, [6-Propyl-4-(3-trifluoromethyl-5,6-dihydro-8H-[1,2,4]triazolo[4,3-a]pyrazin-7-yl)-thieno[2,3-d]pyrimidin-2-yl]-(1H-pyrazol-3-yl)-amine], the affinity, expressed as Ki, was 31 nM. Against the preceding compound, the Ki is about 1.9-fold higher.
The value for `CCCc1cc2c(N3CCn4c(nnc4C(F)(F)F)C3)nc(-n3ccc(NC(C)=O)n3)nc2s1` [Example 9-54, N-{1-[6-Propyl-4-(3-trifluoromethyl-5,6-dihydro-8H-[1,2,4]triazolo[4,3-a]pyrazin-7-yl)-thieno[2,3-d]pyrimidin-2-yl]-1H-pyrazol-3-yl}-acetamide] was 130 nM; that for `CCCc1cc2c(N3CCn4c(nnc4C(F)(F)F)C3)nc(-n3cc(C)cn3)nc2s1` [Example 9-55, 7-[2-(4-Methyl-pyrazol-1-yl)-6-propyl-thieno[2,3-d]pyrimidin-4-yl]-3-trifluoromethyl-5,6,7,8-tetrahydro-[1,2,4]triazolo[4,3-a]pyrazine] was 340 nM.
